In article PMC11555673, “Modulators of the Hop-HSP90 Protein–Protein Interaction Disrupt KSHV Lytic Replication” (ACS Infectious Diseases, 2024):
Where no end group is shown, it is not given here. [ ]: non-standard residue; d: D form. SulfoLink = iodoacetyl-modified agarose resin; Mpa = O=C(O)CCS

Legend:
KSHV vIRF3 = format: cell-based
CDK4 = assay: Western blot of HSP90 client CDK4 in reactivated TREx-BCBL-1-RTA cells; format: cell-based; conditions: Figures 7C and S4
Protocol: The remaining TREx-BCBL-1-RTA cells (after cell viability assay) were harvested and washed twice with ice-cold PBS (pH 7.4). […] Bicinchoninic acid (BCA) protein quantification assay was used to determine the concentration of protein in the lysates. An equal amount of protein samples was denatured in Laemmli SDS loading buffer at 95 °C for 5 min. An equal volume of the denatured protein samples was resolved by SDS-PAGE and transferred to nitrocellulose membranes using the complete Bio-Rad Trans-Blot Turbo Transfer System (Bio-Rad, California). […] The membranes were incubated in an appropriate primary antibody. The primary antibodies used in this study were mouse anti-ORF57 (207.6) monoclonal antibody (Santa Cruz Biotechnology, sc-135746), mouse […]) monoclonal antibody (Novus Biologicals, NB200-167SS), rabbit anti-Hop monoclonal antibody (Abcam, ab126724), mouse anti-Hsp90α/β (F-8) monoclonal antibody (Santa Cruz, sc-13119), anti-CDK4 antibody [EPR4513-32-7] (Abcam, Ab108357), rabbit anti-β-actin [EPR2124] monoclonal antibody (Abcam, Ab213262), and HRP-conjugated anti-GAPDH antibody (EPR6256) (Abcam, ab185059). The membranes were washed three times using TBST and incubated in an appropriate secondary antibody. […]

[1] = test system: KSHV-infected TREx-BCBL-1-RTA cells
Hop = assay: Pulldown from HeLa cell lysates with resin-supported peptides, Western blot for Hop; format: binding; conditions: incubated overnight with resin-supported peptide, densitometry
HSP90 = assay: Pulldown from HeLa cell lysates with resin-supported peptides, Western blot for HSP90; format: binding; conditions: full-length Hop IP experiments
HopTPR2A–HSP90CTD PPI = assay: ELISA-based solid-phase HopTPR2A–HSP90CTD PPI inhibitory assay; format: biochemical; conditions: SAR, Figures 2 and 3; peptide 1 as control

CPP-MAAVD (disulfide) [CPP-19]
vIRF3 expression, dose-dependent analysis (KSHV vIRF3): no effect on either | Levels of HSP90 client CDK4 (CDK4): same effect was not seen | Cytotoxicity [1]: negligible cytotoxicity | ORF57 expression, dose-dependent analysis (KSHV ORF57): no effect on either

IP-5: weakly active peptide 5 immobilized on SulfoLink resin, control (SulfoLink-[Mpa]MEDVE)
Hop in elution after pulldown (Hop): only trace amounts of Hop | HSP90 in elution after pulldown (HSP90): not observed

LWWPD [Peptide 12]
HopTPR2A–HSP90CTD PPI disruption activity (in words) (HopTPR2A–HSP90CTD PPI): weak to moderate activity
